Converted amounts (≈) assume the structure as drawn.
Key:
Type in all cases: cell-based
[1] = system: ATCC 27294: Vancomycine Mycobacterium tuberculosis; assay: Assay for in vitro antibacterial activity, agar dilution method: ATCC 27294; settings: for MIC50: Mycobacterium tuberculosis, ATCC27294, read-out: Antibacterial Activity (MIC50) ATCC 27294; for Antibacterial Activity (MIC50) ATCC 27294: agar dilution method, Vancomycine Mycobacterium tuberculosis
[2] = system: methicillin resistant Staphylococcus aureus; assay: Assay for in vitro antibacterial activity, agar dilution method: MRSA; settings: for Antibacterial Activity (MIC50) MRSA: agar dilution method, methicillin resistant Staphylococcus aureus
[3] = system: H. Influenzae; assay: Assay for in vitro antibacterial activity, agar dilution method: H. Influenzae
[4] = system: vancomycin resistant Enterococci; assay: Assay for in vitro antibacterial activity, agar dilution method: VRE; settings: for Antibacterial Activity (MIC50) VRE: agar dilution method, vancomycin resistant Enterococci

SMILES: N[C@@H]1CON=C1O [Cycloserine, reference compound]
- MIC50 [1]: 6.25 µg/mL (≈ 61.2 µM)

SMILES: CC(=O)NC[C@H]1CN(c2ccc(N3CCOCC3)c(F)c2)C(=O)O1 [Example U-100766, reference compound]
- MIC50 [1]: 1.56 µg/mL (≈ 4.62 µM)
- MIC50 ([2]; Staphylococcus aureus, MRSA, read-out: Antibacterial Activity (MIC50) MRSA): 3.13 µg/mL (≈ 9.28 µM)
- MIC50 ([3]; Haemophilus influenzae): 25 µg/mL (≈ 74.1 µM)
- MIC50 ([4]; Enterococcus, VRE, read-out: Antibacterial Activity (MIC50) VRE): 1.56 µg/mL (≈ 4.62 µM)

SMILES: CC(=O)NC[C@H]1CN(c2ccc(-c3ccc(-n4cncn4)nc3)c(F)c2)C(=O)O1 [Exmp. 129, (S)-[N-3-(4-(2-(1,2,4-triazol-1-yl)pyridin-5-yl)-3-fluorophenyl)-2-oxo-5-oxazolidinyl]methyl acetamide]
- Antibacterial Activity (MIC50) ATCC 27294 [1]: 0.1 µg/mL
- Antibacterial Activity (MIC50) MRSA [2]: 0.39 µg/mL
- Antibacterial Activity (MIC50) Influenzae [3]: 6.25 µg/mL
- Antibacterial Activity (MIC50) VRE [4]: 0.2 µg/mL

SMILES: CC(=O)NC[C@H]1CN(c2ccc(-c3ccc(-n4cnnn4)nc3)c(F)c2)C(=O)O1 [Exmp. 136, (S)-(N-3-(4-(2-(1-tetrazolyl)-pyridin-5-yl)-3-fluorophenyl)-2-oxo-5-oxazolidinyl)methyl acetamide]
- Antibacterial Activity (MIC50) ATCC 27294 [1]: 0.1 µg/mL
- Antibacterial Activity (MIC50) MRSA [2]: 0.78 µg/mL
- Antibacterial Activity (MIC50) Influenzae [3]: 12.5 µg/mL
- Antibacterial Activity (MIC50) VRE [4]: 0.2 µg/mL

SMILES: CC(=O)NC[C@H]1CN(c2ccc(-c3ccc(-c4nnc(C)o4)nc3)c(F)c2)C(=O)O1 [Exmp. 137, (S)-[N-3-(4-(2-(5-methyl-(1,3,4)-oxadiazol-2-yl)-pyridin-5-yl)-3-fluorophenyl)-2-oxo-5-oxazolidinyl]methyl acetamide]
- Antibacterial Activity (MIC50) ATCC 27294 [1]: 0.1 µg/mL
- Antibacterial Activity (MIC50) MRSA [2]: 0.39 µg/mL
- Antibacterial Activity (MIC50) Influenzae [3]: 3.13 µg/mL
- Antibacterial Activity (MIC50) VRE [4]: 0.2 µg/mL

SMILES: CC(=O)NC[C@H]1CN(c2ccc(-c3ccc(-c4noc(C)n4)nc3)c(F)c2)C(=O)O1 [Exmp. 138, (S)-[N-3-(4-(2-(5-methyl-(1,2,4)-oxadiazol-3-yl)pyridin-5-yl)-3-fluorophenyl)-2-oxo-5-oxazolidinyl]methyl acetamide]
- Antibacterial Activity (MIC50) ATCC 27294 [1]: 0.1 µg/mL
- Antibacterial Activity (MIC50) MRSA [2]: 0.78 µg/mL
- Antibacterial Activity (MIC50) Influenzae [3]: 3.13 µg/mL
- Antibacterial Activity (MIC50) VRE [4]: 0.39 µg/mL

SMILES: CC(=O)NC[C@H]1CN(c2ccc(-c3ccc(-c4nnnn4C)nc3)c(F)c2)C(=O)O1 [Exmp. 139, (S)-[N-3-(4-(2-(1-methyl-5-tetrazolyl)-pyridin-5-yl)-3-fluorophenyl)-2-oxo-5-oxazolidinyl]methyl acetamide]
- Antibacterial Activity (MIC50) ATCC 27294 [1]: 0.1 µg/mL
- Antibacterial Activity (MIC50) MRSA [2]: 0.78 µg/mL
- Antibacterial Activity (MIC50) Influenzae [3]: 3.13 µg/mL
- Antibacterial Activity (MIC50) VRE [4]: 0.2 µg/mL

SMILES: CC(=O)NC[C@H]1CN(c2ccc(-c3ccc(-c4nnn(C)n4)nc3)c(F)c2)C(=O)O1 [Exmp. 140, (S)-[N-3-(4-(2-(2-methyl-5-tetrazolyl)-pyridin-5-yl)-3-fluorophenyl)-2-oxo-5-oxazolidinyl]methyl acetamide]
- Antibacterial Activity (MIC50) ATCC 27294 [1]: 0.1 µg/mL
- Antibacterial Activity (MIC50) MRSA [2]: 0.78 µg/mL
- Antibacterial Activity (MIC50) Influenzae [3]: 12.5 µg/mL
- Antibacterial Activity (MIC50) VRE [4]: 0.2 µg/mL

SMILES: CC(=O)NC[C@H]1CN(c2ccc(-c3ccc(N4CCOC4=O)nc3)c(F)c2)C(=O)O1 [Exmp. 143, (S)-[N-3-(4-(2-(2-oxo-(1,3)-oxazolidin-3-yl)-pyridin-5-yl)-3-fluorophenyl)-2-oxo-5-oxazolidinyl]methyl acetamide]
- Antibacterial Activity (MIC50) ATCC 27294 [1]: 0.1 µg/mL
- Antibacterial Activity (MIC50) MRSA [2]: 0.78 µg/mL
- Antibacterial Activity (MIC50) Influenzae [3]: 1.56 µg/mL
- Antibacterial Activity (MIC50) VRE [4]: 0.2 µg/mL

SMILES: CC(=O)NC[C@H]1CN(c2ccc(-c3ccc(-c4nnn[nH]4)nc3)c(F)c2)C(=O)O1 [Exmp. 152, (S)-[N-3-(4-(2-(5-Tetrazolyl)-5-pyridinyl)-3-fluorophenyl)-2-oxo-5-oxazolidinyl]methyl Acetamide]
- Antibacterial Activity (MIC50) ATCC 27294 [1]: >25 µg/mL
- Antibacterial Activity (MIC50) MRSA [2]: >25 µg/mL
- Antibacterial Activity (MIC50) Influenzae [3]: >25 µg/mL
- Antibacterial Activity (MIC50) VRE [4]: >25 µg/mL

SMILES: CO[C@H]1/C=C/O[C@@]2(C)Oc3c(C)c(O)c4c(O)c(c(/C=N/N5CCN(C)CC5)c(O)c4c3C2=O)NC(=O)/C(C)=C\C=C\[C@H](C)[C@H](O)[C@@H](C)[C@@H](O)[C@@H](C)[C@H](OC(C)=O)[C@@H]1C [Rifampin, reference compound]
- MIC50 [1]: 0.2 µg/mL (≈ 0.243 µM)
